Data set [1] has as its system Escherichia coli CICC 10389 (E. coli). Briefly: MIC, microplate dilution method. The format is cell-based. The conditions noted are these: read-out: MIC E. coli. An excerpt: (§1) According to microplate dilution method, all the prepared compounds were screened for their in vitro antibacterial activity. The investigation included three representative Gram-positive strains, including Staphylococcus aureus CICC 10384 (S. aureus), Staphylococcus albus CICC 20237 (S. albus) and methicillinresistant Staphylococcus aureus ATCC 43300 (MRSA), and two representative Gram-negative strains, including Escherichia coli CICC 10389 (E. coli) and Pseudomonas aeruginosa CVCC 3359 (PA). Harmine and cinnamic acid were used as reference drugs.
(§2) The antibacterial efficiency of all prepared compounds was determined using the microplate dilution method. All compounds were prepared into different concentrations of stock solution according to their solubility. The compounds were added to the 96 well plate and serially diluted in Mueller-Hinton broth. Three Gram-positive strains (S. aureus, S. albus and MRSA) and two Gram-negative strains (E. coli and PA) were cultivated and added to the 96 well plate. The initial concentration of bacteria should be higher than 10^5 CFU/mL. The samples were incubated at 37 °C for 18–24 h. The MIC was determined for compounds by observing change of clarity in the broth. The same procedure was repeated in triplicate.

In data set [2] the test system is Staphylococcus aureus CICC 10384 (S. aureus). Briefly: MIC, microplate dilution method. The format is cell-based. To be noted: read-out: MIC S. aureus.
Text: as §1, §2

For data set [3], the system named is Pseudomonas aeruginosa CVCC 3359 (PA). In words: MIC, microplate dilution method. The format is cell-based. The conditions noted are these: read-out: MIC PA.
Text: as §1, §2

The subject of data set [4] is methicillinresistant Staphylococcus aureus ATCC 43300 (MRSA). In words: MIC, microplate dilution method. Type of data set: cell-based. To be noted: read-out: MIC MRSA.
Text: as §1, §2

Data set [5] deals with Staphylococcus albus CICC 20237 (S. albus). Briefly: MIC, microplate dilution method. The format is cell-based. To be noted: read-out: MIC S. albus.
Text: as §1, §2

Data set [6] is described as follows: In vivo pharmacokinetic study in rats. To be noted: both sexes, Sprague-Dawley, plasma, rat. The procedure: Adult males and females Sprague Dawley rats, with average weight of 200–250 g, were purchased from the Experiment Animal Center of Lanzhou University (Lanzhou, China). The rats were housed under an environmentally controlled room for one week before staring the experiment. All procedures were performed according to the guidelines issued by the Ethical Committee of Lanzhou University (Permit Number: SYXK(Gan)-2018-0002).
After 7 days acclimatization, rats were randomly divided into two groups with half male and half female in each group (n = 6). All animals were fasted for 12 h with access to water prior to dosing. One group was intravenously administered with 3c at dose of 10 mg/kg. Another group was oral administered with 3c at dose of 40 mg/kg. Approximately 0.3 mL of blood samples were collected into heparinized tubes from the orbital vein at 0.083, 0.25, 0.5, 0.75, 1, 2, 4, 8, 12 and 24 h after the administration. The heparinized blood samples were immediately centrifuged at 4000 rpm for 10 min and the upper plasma was separated and immediately stored at −20 °C used for UPLC-MS/MS analysis.
Plasma samples were processed as follows. First, 100 μL of plasma samples and 50 μL of tinidazole (1000 ng/mL, internal standard) were mixed by vortex for 1 min. Next, 250 μL of acetonitrile were added to the mixture and vortexed for 10 min. After centrifugation at 10,000 rpm for 10 min, 200 μL of the upper organic layer were removed into 1.5 mL centrifuge tube and dried with nitrogen. Finally, the residue was reconstituted in 100 μL of 50% acetonitrile, vortexed for 1 min, centrifuged at 10,000 rpm for 10 min, and then the supernatant was used for UPLC-MS/MS analysis.
The obtained data were analyzed using a non-compartment open model with PKsolver Software. Pharmacokinetic parameters and the experiment data were expressed as the mean ± standard deviation (SD). A paired student’s t-test was used for statistical analysis, with p < 0.05 considered the minimum level of significance.

Data set [7] concerns MCF-7 (human breast cancer cells). In words: In vitro cytotoxic activity, MTT assay. Type of data set: cell-based. The conditions noted are these: read-out: IC50 MCF-7. The protocol: (§3) In vitro cytotoxic activity of 3c was evaluated using MTT (3-(4,5)-dimethylthi ahiazo (-2)-3,5-diphenytetrazoliiumromide) assay using WI-38 (Human embryonic lung fibroblasts), MCF-7 (human breast cancer cells) and HepG2 (human liver carcinoma cells). Harmine was used as a control.
(§4) The in vitro cytotoxicity of 3c was determined using MTT assay. WI-38 (Human embryonic lung fibroblasts), MCF-7 (Human breast cancer cells) and HepG2 (human liver carcinoma cells) were purchased from American Type Culture Collection (Manassas, VA, USA). The cells were maintained using Dulbecco’s modified eagle’s medium (DMEM, Sangon Biotech, Shanghai, China) supplemented with 10% fetal bovine serum (FBS, Sijiqing Bioengineering Material Co., Ltd., Hangzhou, China), 100 U/mL penicillin and 100 μg/mL streptomycin in a humidified 37 °C incubator under 5% CO2. 100 μL culture medium at a concentration of 1 × 10^4 cells/mL was added to 96-well plate and incubated in a humidified 37 °C incubator under 5% CO2. After 24 h, 10 µL solution of 3c and harmine dissolved in DMSO and PBS and then diluted with DMEM under a concentration gradient, which was added in the wells for final concentrations of 1000, 500, 250, 125, 62.5 µmol/L of compounds in WI-38 and 160, 80, 40, 20, 10 µmol/L of compounds in MCF-7 and Hep-G2. After 48 h incubation, 10 μL MTT solution (5 mg/mL) was added into each well and incubated in a humidified 37 °C incubator under 5% CO2. After 4 h, the supernatant was removed and 150 μL DMSO was added. The absorbance of each well was determined by an enzyme-linked immunosorbent assay reader (Thermo Fisher Scientific Inc., Rochester, NY, USA) at wavelengths of 570 nm. The experiments were performed in triplicate.
Background: Formazan colour is commonly taken as a measure of viable cells.

Data set [8] deals with WI-38 (Human embryonic lung fibroblasts). In words: In vitro cytotoxic activity, MTT assay. The format is cell-based. To be noted: read-out: IC50 WI-38. The procedure: as §3, §4
The test system of data set [9] is HepG2 (human liver carcinoma cells). Briefly: In vitro cytotoxic activity, MTT assay. The format is cell-based. The conditions noted are these: read-out: IC50 HepG2. The protocol: as §3, §4
For the next data set, the system named is S. aureus (CICC 10384). In words: Bactericidal time-kill kinetics. Type of data set: cell-based, Staphylococcus aureus. The protocol: The bacteria S. aureus was prepared in Muellere Hinton broth at 37 °C for 6 h with shaking. The solution of 3c (1 × MIC and 6 × MIC), 5a (1 × MIC and 6 × MIC), harmine (1 × MIC and 6 × MIC) and saline (served as a control group) were separately added to the bacterial suspension so that the final bacterial concentration were 10^6~10^7 CFU/mL. At the predetermined time point (0, 0.5, 2, 4, 6, 12 and 24 h), […] of aliquots were serially diluted in normal saline, plated on sterile Muellere Hinton agar plates, and incubated at 37 °C for 24 h. After incubation, the viable colonies were counted and represented as log10 (CFU/mL). The same procedure was repeated in triplicate.
Figure 3 Time-kill kinetics of compound 3c (A) and 5a (B) at 1 × and 6 × MIC against S. aureus (CICC 10384).

Where [10] appears, read: Gram-negative, Mueller-Hinton broth, 37 °C, 18–24 h.
Setting [11] is: Gram-positive, Mueller-Hinton broth, 37 °C, 18–24 h.
The mark [12] stands for this setting: iv, i.v. 10 mg/kg, single dose, n = 6, Mean ± SD.
The mark [13] stands for this setting: po, i.g. 40 mg/kg, single dose, n = 6, Mean ± SD.

≈ marks a conversion by molar mass, not a printed value. Like-named read-outs stand apart in the source and are kept apart here. Some results are limits rather than exact numbers.

As usually defined, the MIC is the lowest concentration that inhibits growth of the organism. The AUC(0-inf) is the area under the concentration-time curve extrapolated to infinity. A high value points to high exposure. The AUC(0-t) is exposure summed from dosing to a finite time, without extrapolation to infinity. The term Cmax denotes the highest concentration seen after dosing. For orientation: MRT means the average time that molecules of a dose stay in the body. For orientation: Tmax means the time from dosing to the highest level. In general, half-life refers to how long it takes for the measured level to halve. A lower half-life goes with rapid decline. In general, bioavailability refers to dose-corrected exposure relative to a reference, in per cent. In general, CL/F refers to the apparent clearance, not corrected for the fraction that reaches the circulation. A word on the melting point: it is the temperature, or range, at which the solid turns liquid. In general, IC50 refers to the point on the concentration scale where inhibition reaches its midpoint.

`COc1ccc2c3ccnc(C)c3n(CCCOC(=O)/C=C/c3ccccc3[N+](=O)[O-])c2c1` [Compound 3c, 4-(7-Methoxy-1-methyl-9H-pyridine [3,4-b]indole-9-yl) propyl(E)-3-(2-nitrophenyl) acrylate] registered a melting point of 128.6 to 129.3 °C. Further, the minimal inhibitory concentration (MIC) in data set [1] (setting [10]) was 219 µg/mL (≈ 491 µM). Moreover, in data set [2] (setting [11]), the MIC was found to be 13.7 µg/mL (≈ 30.7 µM). The MIC in [3] (setting [10]) worked out at 219 µg/mL (≈ 491 µM). Moreover, the minimal inhibitory concentration (MIC) in data set [4] (setting [11]) turned out to be 54.7 µg/mL (≈ 123 µM). The MIC in data set [5] (setting [11]) was 13.7 µg/mL (≈ 30.7 µM). In [6] (setting [12]), this compound yielded an AUC(0-inf) of 1050 ± 231 ng·h/mL, an AUC(0-t) of 1050 ± 229 ng·h/mL, a Cmax of 837 ± 229 ng/mL and an MRT of 2.86 ± 0.71 h. Also, in data set [6] (setting [12]), the Tmax is 4.98 ± 1.8 min and the half-life was 136 ± 37.2 min. The bioavailability in data set [6] (oral, i.g. 40 mg/kg vs i.v. 10 mg/kg, from AUC0→∞) amounted to 6.9%. Besides, in [6] (setting [13]), the AUC(0-inf) was 290 ± 55.2 ng·h/mL, the AUC(0-t) was determined as 284 ± 54.4 ng·h/mL, the CL/F was 4.33 mL/min/kg and the concentration peaked (Cmax) at 159 ± 59.6 ng/mL. For the same compound, in data set [6] (setting [13]), the MRT came to 3.33 ± 0.83 h, the Tmax is 15 ± 1.98 min and the half-life is 78 ± 28.2 min. Also, in data set [7] (MCF7, MTT, 48 h incubation, n = 3, Mean ± SD), the IC50 worked out at 94.9 ± 3.64 µM. In addition, the IC50 in data set [8] (WI-38, MTT, 48 h incubation, n = 3, Mean ± SD) was 340.3 ± 2.79 µM. Moreover, the IC50 in [9] (HepG2, MTT, 48 h incubation, n = 3, Mean ± SD) stood at 161.7 ± 1.31 µM. The “time to 4-log10 reduction” value in the data set on S. aureus (CICC 10384) (1 × MIC) is reported as “about 4 h”. Moreover, the “time to completely kill the bacteria” value in the data set with S. aureus (CICC 10384) (6 × MIC) is no more than 0.5 h.
For the compound `COc1ccc2c(c1)[nH]c1c(C)nccc12` [Harmine, 7-methoxy-1-methyl-9H-pyridine [3,4-b] indole], the MIC in [1] was determined as 15.6 µg/mL (≈ 73.6 µM); in data set [2], 31.2 µg/mL (≈ 147 µM); in data set [3], 15.6 µg/mL (≈ 73.6 µM); in data set [4] it was 62.5 µg/mL (≈ 294 µM); in data set [5], 15.6 µg/mL (≈ 73.6 µM). The concentration for half-maximal inhibition (IC50) amounted to 78.9 ± 2.82 µM in data set [7] (MCF7, 48 h); 103.4 ± 0.96 µM in data set [8] (WI-38, 48 h); 67.6 ± 1.6 µM in data set [9] (HepG2, 48 h). Also, the “time-kill effect in words” value in the data set with S. aureus (CICC 10384) (1 × MIC) was “just slowed bacterial propagation”. The “time to 4-log10 reduction” value with S. aureus (CICC 10384) (6 × MIC) was “about 24 h”.

The record behind these values is PMC8400480, “Synthesis, Antibacterial and Pharmacokinetic Evaluation of Novel Derivatives of Harmine N^9-Cinnamic Acid” (Molecules, 2021).
